Laboratory results: patent US20080177067A1, “Crystal forms of 9-hydroxy-risperidone (paliperidone)” (priority 2006, published 2008)

Key:
[1] = Weight loss measured by TGA; format: physicochemical
[2] = Water content measured by KF titration; format: physicochemical

Compound | weight loss, as measured by TGA ([1]; between 25-168° C.) | water content, as measured by KF titration [2] | weight loss, as measured by TGA ([1]; between 25-145° C.) | weight loss, as measured by TGA ([1]; between 25-155° C.)
Cc1nc2n(c(=O)c1CCN1CCC(c3noc4cc(F)ccc34)CC1)CCCC2O (centres unmarked) [Form I, 3-[2-[4-(6-fluorobenzo[d]isoxazol-3-yl)-1-piperidyl]ethyl]-7-hydroxy-4-methyl-1,5-diazabicyclo[4.4.0]deca-3,5-dien-2-one] | about 0.6% | about 0.5% | – | –
Cc1nc2n(c(=O)c1CCN1CCC(c3noc4cc(F)ccc34)CC1)CCCC2O (centres unmarked) [Form II, 3-[2-[4-(6-fluorobenzo[d]isoxazol-3-yl)-1-piperidyl]ethyl]-7-hydroxy-4-methyl-1,5-diazabicyclo[4.4.0]deca-3,5-dien-2-one] | – | about 0.5% | about 0.4% | –
Cc1nc2n(c(=O)c1CCN1CCC(c3noc4cc(F)ccc34)CC1)CCCC2O (centres unmarked) [Form III, 3-[2-[4-(6-fluorobenzo[d]isoxazol-3-yl)-1-piperidyl]ethyl]-7-hydroxy-4-methyl-1,5-diazabicyclo[4.4.0]deca-3,5-dien-2-one] | about 19.2% | about 0.2% | – | –
Cc1nc2n(c(=O)c1CCN1CCC(c3noc4cc(F)ccc34)CC1)CCCC2O (centres unmarked) [Form V, 3-[2-[4-(6-fluorobenzo[d]isoxazol-3-yl)-1-piperidyl]ethyl]-7-hydroxy-4-methyl-1,5-diazabicyclo[4.4.0]deca-3,5-dien-2-one] | – | about 0.3% | – | about 0.1%
